Measurements from PMC9958137, “The cofactor-dependent folding mechanism of Drosophila cryptochrome revealed by single-molecule pulling experiments” (Nature Communications, 2023).

Tests used:
[1] = biological target: T1, dCRY (Drosophila cryptochrome) (Drosophila melanogaster, UniProt O77059); assay: single-molecule optical tweezers, ligand-promoted refolding; type: binding; details: 0.1 mM ligand, FAD dialysed out; refolding 20 s at 1 pN; pH 8.0; no Mg2+
T1 construct: gene cry; full length, 542 residues; His6, N-terminal Avi tag (biotinylated) and C-terminal ybbR tag (DNA handle) kept; 558 residues with engineered linkers; FAD dialysed out for apo; only genus Drosophila given

[2] = biological target: T1, dCRY (Drosophila cryptochrome); assay: single-molecule optical tweezers, FAD titration of fully folded fraction; type: binding; details: read-out: Kd,app

T1 sequence (O77059 whole entry): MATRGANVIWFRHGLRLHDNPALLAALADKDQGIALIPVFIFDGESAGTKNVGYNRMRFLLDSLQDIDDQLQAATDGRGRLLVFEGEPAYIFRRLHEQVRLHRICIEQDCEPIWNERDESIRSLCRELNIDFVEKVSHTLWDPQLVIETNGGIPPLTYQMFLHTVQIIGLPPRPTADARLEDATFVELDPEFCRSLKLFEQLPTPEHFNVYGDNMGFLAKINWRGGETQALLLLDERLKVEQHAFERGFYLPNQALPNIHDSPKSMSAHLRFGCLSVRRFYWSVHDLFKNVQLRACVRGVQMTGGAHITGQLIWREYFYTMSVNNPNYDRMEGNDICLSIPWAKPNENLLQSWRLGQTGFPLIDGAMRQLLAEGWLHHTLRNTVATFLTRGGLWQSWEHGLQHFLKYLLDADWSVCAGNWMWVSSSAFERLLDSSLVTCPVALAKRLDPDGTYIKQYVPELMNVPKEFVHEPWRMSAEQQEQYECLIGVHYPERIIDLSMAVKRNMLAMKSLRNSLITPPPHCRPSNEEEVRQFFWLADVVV

| SMILES | % fully folded events at 0.1 mM [1] [%] | Kd [2] [nM] |
| --- | --- | --- |
| Nc1ncnc2c1ncn2[C@@H]1O[C@H](COP(=O)(O)OP(=O)(O)O)[C@@H](O)[C@H]1O [ADP] | 9 |  |
| Nc1ncnc2c1ncn2[C@@H]1O[C@H](CO)[C@@H](O)[C@H]1O [adenosine] | 20 |  |
| Nc1ncnc2c1ncn2[C@@H]1O[C@H](COP(=O)(O)O)[C@@H](O)[C@H]1O [AMP] | 24 |  |
| Cc1cc2nc3c(=O)[nH]c(=O)nc-3n(C[C@H](O)[C@H](O)[C@H](O)COP(=O)(O)OP(=O)(O)OC[C@H]3O[C@@H](n4cnc5c(N)ncnc54)[C@H](O)[C@@H]3O)c2cc1C [FAD] |  | 0.11 ± 0.01 |

Other lines, results leading:

| % fully folded events at 0.1 mM [1] [%] | Kd [2] [nM] | SMILES |
| --- | --- | --- |
| 84 |  | Cc1cc2nc3c(=O)[nH]c(=O)nc-3n(C[C@H](O)[C@H](O)[C@H](O)COP(=O)(O)O)c2cc1C [FMN] |
| 39 |  | Cc1cc2nc3c(=O)[nH]c(=O)nc-3n(C[C@H](O)[C@H](O)[C@H](O)CO)c2cc1C [riboflavin] |
